Measured values published in patent publication US12686699B2, “Crystalline forms of squalamine” (priority 2020, dated 2026).
Entries after “also recorded” stand apart in the source; their conditions may differ. Where two headings read alike, the source gives them in different places.

Columns and labels:
Type in all cases: physicochemical
[1] = Intrinsic dissolution rate determination in FaSSGF; conditions: for IDR: FaSSGF pH 1.6, 37° C., interval 3-30 min (Form A1), 10-45 min (Form C); for API concentration in solution: FaSSGF, 37° C.
Method: The intrinsic dissolution rate of Forms A1 and C was determined in FaSSGF. […] The pressure applied was approximately 40 bar for 2 minutes. The two tablets were placed in 30 mL vials and afterwards the FaSSGF solution pre-warmed at 37° C. […] After FaSSGF addition, stirring was started. The medium (20 mL) was added to vessels containing tablets of Forms A1 and C. The tablets were kept at 37° C. under continuous stirring. […] In the plot shown in FIG. 14, the % concentration of the API in solution is plotted against the time. The dissolution rate (Table 16) was calculated in the interval between 3 and 30 minutes for the experiment started with Form A1, and in the range 10-45 minutes for the experiment started with Form C.

[2] = Dynamic Vapor Sorption (DVS) measurement; conditions: for hygroscopic behavior: 40 to 95% RH
[3] = Solubility in biorelevant media (shake-flask)
Method: The experiments were performed in triplicate. Approximately 30 mg of API were weighed in the 8 mL glass vials and an aliquot of media was added (see Table 14 for details). […] Upon completion of the equilibration time, the solids were separated from the liquid phases by centrifugation. The mother liquors were filtered using […] PTFE filters and injected at the HPLC to determine the API concentration in solution. The pH was recorded after 3 hours (1 hour for FaSSGF). The recovered ambient-dried solids were analyzed by HT-XRPD.

[4] = Physical stability test of solid forms
Method: Solid samples of Forms A1, B1 and C were incubated at three different conditions to test their physical stability: 80° C., closed vial, 24 hours; 60° C./29% RH, open vial, 48 hours; and 40° C./75% RH, open vial, 48 hours. The solids recovered after the stability studies were analyzed by HR-XRPD, TGMS and DSC.

[5] = Variable Humidity XRPD (VH-XRPD); conditions: 30° C., RH profile 40→87→0→60% (Form A1), 40→85→0→60% (Form C)
Method: The powder data were collected on D8 Advance diffractometer using Cu Kα1 radiation (1.54056 Å) with germanium monochromator at 30° C. using the SYCOS H-HOT hot humid chamber produced by Ansyco GmbH. The data were collected in the Bragg-Brentano geometry (locked coupled) from 8 to 35° 2θ on the flat sample holder (without rotation) on solid state LynxEye detector with 0.018° per step with 1 sec/step scan speed. After reaching demanded humidity the sample was relaxed for 5 minutes before measurement. The sample was optionally measured with 2 seconds per step and in the last measurement at RH 0% the relaxation time was elongated to 30 min.
Variable Humidity XRPD (VH-XRPD) measurements were performed on Forms A1 and C to investigate the in-situ phase changes induced by exposure to variable RH levels. Diffractograms of Form A1 were collected at 30° C. with a RH profile of 40→87→0→60% (FIG. 2). Initially, the pattern of Form A1 was distinguished at 40% RH. By increasing the RH level up to 87%, no changes in the XRPD pattern were detected. Furthermore, no changes were observed by lowering the RH from 87% down to 20%.

[6] = Exposure to accelerated aging conditions (AAC); conditions: 40° C./75% RH for 2 days
Source text: The polymorphic behavior of squalamine phosphate (ENT-01) and the physico-chemical properties of two hydrated phases were investigated. A squalamine tetrahydrate, designated Form A1, was identified. The squalamine polymorphism assessment and hydrate screen allowed identification of several squalamine crystalline phases. Among these phases, four squalamine hydrates (Forms B1, B2, C, D) and three mixed squalamine hydrates/solvates (Forms A2, E, F) were identified. All phases converted to squalamine Form A1 upon exposure to accelerated aging conditions (ACC) (2 days at 40° C./75% RH).
In the vacuum-dried solids, a novel pattern very similar to Form A1 but with shifted peaks was identified. This phase was designated Form A2 (see Table 2) and characterized by HT-XRPD. […] Form A2 was identified in several vacuum-dried solids recovered from the hydrate screen experiments.

[7] = desorption, between 5 and 0% RH
[8] = desorption, between 25 and 5% RH
[9] = first sorption cycle, between 45 and 95% RH
[10] = last sorption cycle, between 25 and 45% RH
[11] = FaSSGF (pH 1.6), 37° C., 1 hour
[12] = FaSSIF (pH 6.5), 37° C., 3 hours
[13] = after 40° C./75% RH, open vial, 48 h (TGMS)
[14] = after 60° C./29% RH, open vial, 48 h (TGMS)
[15] = after 80° C., closed vial, 24 h (TGMS)

| Compound | IDR [1] [mg/min/cm^2] | API concentration in solution ([1]; after 45 minutes) | API concentration in solution ([1]; after 60 minutes) | hygroscopic behavior [2] | change in mass [2, 7] [%] | change in mass [2, 8] [%] | change in mass (water vapor uptake) [2, 9] [%] | change in mass ([2]; last sorption cycle, 0-25% RH) [%] | change in mass (water vapor uptake) [2, 10] [%] | SOLUBILITY [3, 11] | SOLUBILITY [3, 12] | Solid Phase Composition ([4]; 40° C./75% RH, open vial, 48 h) | Solid Phase Composition ([4]; 60° C./29% RH, open vial, 48 h) | Solid Phase Composition ([4]; 80° C., closed vial, 24 h) | Mass loss [4, 13] [%] | Mass loss [4, 14] [%] | Mass loss [4, 15] [%] | physical stability under variable RH levels [5] | further results |
| --- | --- | --- | --- | --- | --- | --- | --- | --- | --- | --- | --- | --- | --- | --- | --- | --- | --- | --- | --- |
| CC(C)[C@@H](CC[C@@H](C)[C@H]1CC[C@H]2[C@@H]3[C@H](O)C[C@H]4C[C@@H](NCCCNCCCCN)CC[C@]4(C)[C@H]3CC[C@]12C)OS(=O)(=O)O.O=P(O)(O)O [Form A1, squalamine phosphate] | 0.049 | ~20% | above 30% | slightly hygroscopic | 5.3 | 1.7 | 2.1 | 7 | 0.6 | ~ 9 mg/mL | practically insoluble | physically stable | physically stable | physically stable | 9.2 | 8.5 | 9.1 | stable in the range 40→87→20% RH; also recorded: started to release water at RH levels below 20% | change in mass (water absorbed) ([2]; between 35 to 65% RH): 0.7%; change in mass ([2]; desorption, 95-55% RH): 0.9%; change in mass ([2]; desorption, between 45 and 25% RH): 0.6%; change in mass ([2]; desorption, between 55 and 45% RH): 1%; SOLUBILITY ([3]; 37 °C, pH 1.6, fassgf or other biorelevant, thermodynamic from solid, FaSSGF (pH 1.6), 1 hour, read-out: SOLUBILITY): 9 mg/mL; SOLUBILITY ([3]; 37 °C, pH 5.1, fessif, thermodynamic from solid, FeSSIF (initial medium pH 5.1), 3 hours, read-out: SOLUBILITY): ~1 mg/mL; SOLUBILITY ([3]; 37 °C, pH 6.5, fassif, thermodynamic from solid, FaSSIF (pH 6.5), 3 hours, read-out: SOLUBILITY): < 0.1 mg/mL; SOLUBILITY ([3]; FaSSGF (pH 1.6), 37° C., 1 hour, listed as A1): 8.9 mg/mL; SOLUBILITY ([3]; FeSSIF (initial medium pH 5.1), 37° C., 3 hours, listed as Al): 0.8 mg/mL |
| CC(C)[C@@H](CC[C@@H](C)[C@H]1CC[C@H]2[C@@H]3[C@H](O)C[C@H]4C[C@@H](NCCCNCCCCN)CC[C@]4(C)[C@H]3CC[C@]12C)OS(=O)(=O)O.O=P(O)(O)O [Form B1, squalamine phosphate] |  |  |  |  |  |  |  |  |  |  |  | converted to Form A1 | converted to Form A1; also recorded: converting to squalamine Form A1 | physically stable | 8.9 | 9.0 | 1.8 |  |  |
| CC(C)[C@@H](CC[C@@H](C)[C@H]1CC[C@H]2[C@@H]3[C@H](O)C[C@H]4C[C@@H](NCCCNCCCCN)CC[C@]4(C)[C@H]3CC[C@]12C)OS(=O)(=O)O.O=P(O)(O)O [Form C, squalamine phosphate] | 0.014 | below 10% | above 20% | slightly hygroscopic | 6 | 7.3 | 3.1 | 8.1 | 1.4 | 16.9 mg/mL | practically insoluble | physically stable | converted to Form A1 | converted to Form A1 | 12.6 | 8.7 | 8.8 | physically stable in the range 40→85→40% RH | SOLUBILITY ([3]; FaSSIF (pH 6.5), 37° C., 3 hours, listed as C): <0.1 mg/mL; SOLUBILITY ([3]; FeSSIF (initial medium pH 5.1), 37° C., 3 hours): ~1 mg/mL; SOLUBILITY ([3]; FeSSIF (initial medium pH 5.1), 37° C., 3 hours, listed as C): 0.9 mg/mL |
| CC(C)[C@@H](CC[C@@H](C)[C@H]1CCC2C3C(CC[C@@]21C)[C@@]1(C)CC[C@H](NCCCNCCCCN)C[C@@H]1C[C@H]3O)OS(=O)(=O)O.O=P(O)(O)O (stereo partly shown) [Form D, squalamine phosphate] |  |  |  |  |  |  |  |  |  |  |  |  |  |  |  |  |  |  | physical stability upon exposure to AAC [6]: physically unstable |
